# According to patent US20090188496A1, “INHALABLE TIOTROPIUM AND CONTAINER THEREFOR” (Boehringer Ingelheim International GmbH, priority 2003, published 2009):
# Assay: In-use stability test of FPD, commercial capsules in opened blister, 40° C. and 75% Rh
# Assay type: physicochemical
# Settings: conclusion of tests S1-5 and HBS1-3
# Procedure: (§1) From the blister holding 5 capsules one capsule was withdrawn and the remaining 4 capsules were put 4 days into 40° C. and 75% Rh. The blister containing the 4 capsules was then put in an exicator for 2 h before tests were performed. The test was performed with 4 kPa pressure drop over the […]® at room temperature and laboratory ambient conditions.
# as §1, with “put 13” for “put 4”
# as §1, with “put 21” for “put 4”
smiles,measurement,value
C[N+]1(C)[C@@H]2C[C@@H](OC(=O)C(O)(c3cccs3)c3cccs3)C[C@H]1[C@@H]1O[C@@H]12 [tiotropium],Sensitivity of FPD to moisture,extremely sensitive to moisture
